In patent US11666644B2, “Peptide vaccines” (TREOS BIO LIMITED, priority 2018, dated 2023):

Columns and labels:
HLA class I [1] = test: PEPI3+ Test: 9 mer epitopes binding to at least 3 HLA class I of individuals in the Model Population (n=433); parameters: species or system human; conditions: B % multiplied by N % (antigen expression frequency in gastric cancers)
Description: Predicted binding between particular HLA and epitopes (9 mer peptides) was based on the Immune Epitope Database tool for epitope prediction (iedb.org).
The validated HLA-epitope binding prediction process was used to determine all HLA-epitope binding pairs described in the Examples below.
An in silico human trial cohort of 433 subjects with complete 4-digit HLA class I […] genotype (2×HLA-A*xx:xx; 2×HLA-B*xx:xx; 2×HLA-C*xx:xx) and demographic […] information was compiled. This Model Population has subjects with mixed ethnicity having a total of 152 different HLA alleles that are representative for >85% of presently known allele G-groups.
To select immunogenic peptides from the target CTAs, the PEPI3+ Test and the Model Population described in Example 8 were used to identify the 9 mer epitopes (PEPI3+s) that are most frequently presented by at least 3 HLAs of the individuals in the Model Population. These epitopes are referred to herein as “bestEPIs”. An illustrative example of the “PEPI3+ hotspot” analysis and bestEPI identification is shown in FIG. 15 for the PRAME antigen.
The reported expression frequency for each CTA was multiplied by the frequency of the PEPI3+ hotspots in the Model Population to identify the T cell epitopes (9 mers) that will induce a cytotoxic T cell response against gastric cancer antigens in the highest proportion of individuals (Table 20a). 15 mers were then selected encompassing each of the selected 9 mers (Table 20a). The 15 mers were selected to bind to most HLA class II alleles of most subjects. These 15 mers can induce both CTL and T helper responses in the highest proportion of subjects.

HLA class I [2] = test: as above; parameters: species or system human; conditions: N % (antigen expression frequency in lung cancers) multiplied by B %
[3] = system: metastatic ovarian adenocarcinoma; test: Patient-A clinical outcome and tumor MRI findings (lesion responses); format: in vivo, human
Description: For treatment of Patient-A the 13 peptides were formulated as 4×3 or 4 peptide (POC01/1, POC01/2, POC01/3, POC01/4). One treatment cycle is defined as administration of all 13 peptides within 30 days.
2017-2018: Patient-A received 8 cycles of vaccination as add-on therapy, and lived 17 months (528 days) after start of the treatment. […] They died in October 2018.
Patient's tumor MRI findings (Baseline Apr. 15, 2016) (BL: baseline for tumor response evaluation on FIG. 35)
• Rapid progression in lymph nodes, hepatic, retroperitoneal and thoracic areas, significant pleural fluid and ascites. Initiate Carboplatin, Gemcitabine, Avastin. Sep. […] Nov. […] Remission in hepatic, retroperitoneal area and lymph nodes Apr. 13, 2018: Progression • Complete remission in the thoracic and retroperitoneal regions. Progression in hepatic centers and lymph nodes Jun. […] Minimal regression in hepatic centers and lymph nodes July 2018: Progression October 2018: Patient-A died Partial MRI data for Patient-A is shown in Table 23 and FIG. 35.

| Compound | B % * N % (HLA class I [1]) [%] | N % * B % (HLA class I [2]) [%] | further results |
| --- | --- | --- | --- |
| 1 (KMMKRLMTV; MAGE-C1 9mer) [compound 1] | 43 | – | – |
| 2 (KMHSLLALM; CAGE-1 9mer) [compound 2] | 33 | – | – |
| 3 (FSYEQDPTL; TSP50 9mer) [compound 3] | 29 | – | – |
| 4 (YLRLHRHAY; DPPA2 9mer) [compound 4] | 28 | – | – |
| 5 (LQYENSIML; HIWI 9mer) [compound 5] | 28 | – | – |
| 6 (RAIEQLAAM; SURVIVIN 9mer) [compound 6] | 26 | – | – |
| 7 (FVASINEGM; HIWI 9mer) [compound 7] | 21 | – | – |
| 8 (TTMETQFPV; TSP50 9mer) [compound 8] | 21 | – | – |
| 9 (LASNHFLYL; 5T4 9mer) [compound 9] | 21 | – | – |
| 10 (FLYLPRDVL; 5T4 9mer) [compound 10] | 21 | – | – |
| 11 (SSFSSSAPF; 5T4 9mer) [compound 11] | 17 | – | – |
| 12 (FAHPRKLLM; MAGE-A2 9mer) [compound 12] | 17 | – | – |
| 13 (SSNSTALAL; KK-LC-1 9mer) [compound 13] | 17 | – | – |
| 14 (STNALIQPV; CAGE-1 9mer) [compound 14] | 16 | – | – |
| 15 (STFKNWPFL; SURVIVIN 9mer) [compound 15] | 15 | – | – |
| 16 (FSTTINYTL; MAGE-A2 9mer) [compound 16] | 12 | – | – |
| 17 (ILNNFPHSI; KK-LC-1 9mer) [compound 17] | 11 | – | – |
| 18 (FVQENYLEY; MAGE-A3 9mer) [compound 18] | 10 | – | – |
| 19 (ITMPFSSPM; LAGE-1 9mer) [compound 19] | 9 | – | – |
| 21 (YEDHFPLLF; MAGE-A10 9mer) [compound 21] | 8 | – | – |
| 22 (TSYVKVLEY; MAGE-A1 9mer) [compound 22] | 8 | – | – |
| 24 (NTDNNLAVY; KK-LC-1 9mer) [compound 24] | 8 | – | – |
| 25 (KAMVQAWPF; PRAME 9mer) [compound 25] | 7 | – | – |
| 27 (SAFPTTINF; MAGE-A1 9mer) [compound 27] | 7 | – | – |
| 28 (MTFGRLHRI; SSX1 9mer) [compound 28] | 7 | – | – |
| 29 (RALAETSYV; MAGE-A1 9mer) [compound 29] | 5 | – | – |
| 30 (HVMNPLETL; PRAME 9mer) [compound 30] | 4 | – | – |
| 90 (FAADVRLMF; BRDT 9mer) [compound 90] | – | 28 | – |

| Compound | B % * N % (HLA class I [1]) [%] | N % * B % (HLA class I [2]) [%] | further results |
| --- | --- | --- | --- |
| 91 (KAMVQAWPF; PRAME 9mer) [compound 91] | – | 23 | – |
| 92 (FSWPFQRPV; BRDT 9mer) [compound 92] | – | 21 | – |
| 93 (YSSFVFNLF; NALP4 9mer) [compound 93] | – | 19 | – |
| 94 (RAMEAFNLV; NALP4 9mer) [compound 94] | – | 18 | – |
| 95 (FVIDSFEEL; NALP4 9mer) [compound 95] | – | 17 | – |
| 97 (FAHPRKLLM; MAGE-A2 9mer) [compound 97] | – | 15 | – |
| 98 (RAIEQLAAM; SURVIVIN 9mer) [compound 98] | – | 15 | – |
| 99 (YIAQFTSQF; PRAME 9mer) [compound 99] | – | 14 | – |
| 100 (HVMNPLETL; PRAME 9mer) [compound 100] | – | 14 | – |
| 101 (FQDFFPVIF; MAGE-A12 9mer) [compound 101] | – | 13 | – |
| 102 (LLRHVMNPL; PRAME 9mer) [compound 102] | – | 13 | – |
| 103 (KMMKRLMTV; DPPA2 9mer) [compound 103] | – | 13 | – |
| 104 (FVLANGHIL; NY-SAR-35 9mer) [compound 104] | – | 12 | – |
| 105 (MLAKKHFSY; BRDT 9mer) [compound 105] | – | 11 | – |
| 106 (SVMDLVGSI; LDHC 9mer) [compound 106] | – | 11 | – |
| 107 (MMDLQHGSL; LDHC 9mer) [compound 107] | – | 11 | – |
| 108 (FSTTINYTL; MAGE-A2 9mer) [compound 108] | – | 10 | – |
| 109 (MASESLSVM; MAGE-C2 9mer) [compound 109] | – | 10 | – |
| 110 (FVYGEPREL; MAGE-C2 9mer) [compound 110] | – | 10 | – |
| 112 (FVQENYLEY; MAGE-A3 9mer) [compound 112] | – | 9 | – |
| 114 (STFKNWPFL; SURVIVIN 9mer) [compound 114] | – | 9 | – |
| 115 (YLRLHRHAY; DPPA2 9mer) [compound 115] | – | 9 | – |
| 117 (SSNSTALAL; KK-LC-1 9mer) [compound 117] | – | 7 | – |
| 118 (FSTSSSLIL; MAGE-C2 9mer) [compound 118] | – | 7 | – |
| 119 (RALAETSYV; MAGE-A1 9mer) [compound 119] | – | 5 | – |
| O=C(c1cc(Cc2n[nH]c(=O)c3ccccc23)ccc1F)N1CCN(C(=O)C2CC2)CC1 [Olaparib] | – | – | FU2 (% Δ from BL) ([3]; SUM of lesions, Dec. 25, 2016, before PIT vaccine treatment): −76.0%; FU2 (% Δ from BL) ([3]; lesion TL2, Dec. 25, 2016, before PIT vaccine treatment): −100.0%; FUI (% Δ from BL) ([3]; lesion TL2, follow up 1, Olaparib treatment May 2016-January 2017): −100.0%; Best Response Cycle ([3]; lesion TL2, follow-up time point of best response): FU1; FU2 (% Δ from BL) ([3]; lesion TL4, Dec. 25, 2016, before PIT vaccine treatment): −100.0%; Best Response Cycle ([3]; lesion TL4, follow-up time point of best response): FU2 |
| SEQ ID NO: 111: 9 mer bestEPI of MAGE-C2 within 15 mer SEQ ID NO: 141; printed 'ill' (SVMSSNVSF; MAGE-C2 9mer) | – | 9 | – |
